Measured values taken from patent US5663201A, “Desferrioxamine-B salts” (CIBA-GEIGY Corporation, priority 1992, dated 1997).
Counter-ions that a name gives are not always drawn. Like-named read-outs stand apart in the source and are kept apart here.

Experiments:
[1] = type: physicochemical; settings: n-octanol/water, 5000 µM
Protocol: (§1) The partition coefficients of the salts prepared in Examples 1 to 5 between n-octanol and water are determined by the `shake-flask` method of Leo et at, Chem. Rev., 71(6), 525 (1971).
The n-octanol and aqueous phases are mutually saturated prior to conducting the experiment. The desferrioxamine-B sulphonic acid addition salt is dissolved in the aqueous phase at a concentration of 0.005 mol/l and the partition experiment is performed by shaking the vessel containing the two phases until an equilibrium has been achieved. […] After equilibrium has been achieved, the sample is centrifuged to enable phase separation. Both organic and aqueous phases are analysed for desferrioxamine-B content via extraction of an appropriate aliquot, quenching with an aqueous (for assay of the aqueous phase) or methanolic (for assay of the n-octanol phase) solution of FeCl3, and measurement of the absorption of the characteristic ferrioxamine-B chelate at ca. 450 nm. Respective calibration plots (absorbance vs. concentration of desferrioxamine-B sulphonic acid salt) for the assay of both aqueous and organic phases show a linear response over the concentration range studied. The results obtained are as follows: […]

[2] = type: physicochemical; settings: n-octanol/phosphate buffer, pH 7.4
Protocol: as §1
The n-octanol and aqueous phases are mutually saturated prior to conducting the experiment. The desferrioxamine-B sulphonic acid addition salt is dissolved in the aqueous phase at a concentration of 0.005 mol/l and the partition experiment is performed by shaking the vessel containing the two phases until an equilibrium has been achieved. […] After equilibrium has been achieved, the sample is centrifuged to enable phase separation. Both organic and aqueous phases are analysed for desferrioxamine-B content via extraction of an appropriate aliquot, quenching with an aqueous (for assay of the aqueous phase) or methanolic (for assay of the n-octanol phase) solution of FeCl3, and measurement of the absorption of the characteristic ferrioxamine-B chelate at ca. 450 nm. Respective calibration plots (absorbance vs. concentration of desferrioxamine-B sulphonic acid salt) for the assay of both aqueous and organic phases show a linear response over the concentration range studied. The results obtained are as follows:
The partition coefficients of the salts prepared in Examples 1 to 5 between n-octanol and an aqueous phosphate buffer at pH7.4 having an ionic strength of 0.31 mol/l are determined using the procedure of Examples 6-10. The results obtained are as follows:
The use of n-octanol/aqueous media partition coefficients as a model for the lipophilicity of drugs is well established (see the abovementioned Leo et al reference). The aqueous phase in Examples 11 to 15 simulates physiological conditions.

[3] = intrinsic dissolution of tablets, Langenbucher flow-through apparatus; type: physicochemical; settings: water, 25° C.
Protocol: Tablets are prepared from the salts of Examples 1 and 4 by compressing a mixture of 99 parts of the salt and 1 part of magnesium stearate in a 13mm die for 2 minutes under a pressure of 4×10^5 kPa. The intrinsic dissolution rates of the tablets are determined using a Langenbucher flow-through apparatus, with water at 25° C. as the dissolution medium. The amount of desferrioxamine-B dissolved in the medium is measured at intervals using a spectrophotometric assay at 215 nm.

[4] = test system: Daudi cell line (B-cell lymphoma); assay: iron-chelation bioassay: growth inhibiting effect on cells through iron removal, [3H] Thymidine uptake; type: cell-based; settings: 72 hours, Control (0 μM): Ex 18 22297, Ex 19 23897, listed as octanesulphonate
Protocol: The iron-chelating properties of salts of the invention in a biological system are determined by means of a bioassay in which the growth inhibiting effect of the salts on cells through iron removal is measured by the uptake of radioactively labelled thymidine into the cells. The bioassay is carried out using a Daudi cell line (B-cell lymphoma), a Roswell Park Memorial Institute (RPMI) 1640 medium containing 1 µM ferric citrate and supplements as low iron washing medium and RPM11640 together with 5% by weight of foetal calf serum as passaging medium.
The cells are fed 24 hours before use. They are washed twice in the low iron washing medium to remove any excess iron and diluted with this medium to a concentration of 0.2×10^6 cells/0.180 ml. To 0.180 ml aliquots are added 0.02 ml of solutions of the desferrioxamine-B salts under test in phosphate-buffered saline (PBS) to give concentrations ranging from a Control containing no salt to a […] solution. The cells are then incubated at 37° C. in an atmosphere containing 5% by volume of carbon dioxide for 72 hours, being pulsed for the last 8 hours of that time with labelled [^3 H] Thymidine at 5 micro Ci/ml. The resulting cells are harvested and their radioactive disintegrations are counted for 10 minutes. The results are shown in the table below as the average of 4 separate experiments (except the Control result in Example 18 which is the average of 3 separate experiments).

[5] = in words, U.S. Pat. No. 3,247,197; cited from earlier work

For `CC(=O)N(O)CCCCCNC(=O)CCC(=O)N(O)CCCCCNC(=O)CCC(=O)N(O)CCCCCN` [Example 4, octane-1-sulphonate salt of desferrioxamine-B], the “Partition Coefficient” value [1] was 0.121, the “Partition Coefficient” value [2] was 0.047 and the “% Desferrioxaine-B salt dissolved” value ([3]; 1 min, listed as octanesulphonate) was 1.71%. The “% Desferrioxaine-B salt dissolved” value ([3]; 2 min, listed as octanesulphonate) was 3.07%, the “% Desferrioxaine-B salt dissolved” value ([3]; 5 min, listed as octanesulphonate) was 6.88% and the “% Desferrioxaine-B salt dissolved” value ([3]; 10 min, listed as octanesulphonate) was 10.56%. For the same compound, the “% Desferrioxaine-B salt dissolved” value ([3]; 15 min, listed as octanesulphonate) was 14.22%, the “% Desferrioxaine-B salt dissolved” value ([3]; 20 min, listed as octanesulphonate) was 17.94% and the “% Desferrioxaine-B salt dissolved” value ([3]; 30 min, listed as octanesulphonate) was 24.73%. For the same compound, the “% Desferrioxaine-B salt dissolved” value ([3]; 50 min, listed as octanesulphonate) was 37.09%, the “% Desferrioxaine-B salt dissolved” value ([3]; 75 min, listed as octanesulphonate) was 48.75% and the “% Desferrioxaine-B salt dissolved” value ([3]; 100 min, listed as octanesulphonate) was 58.34%. The “% Desferrioxaine-B salt dissolved” value ([3]; 125 min, listed as octanesulphonate) was 66.38%, the “% Desferrioxaine-B salt dissolved” value ([3]; 150 min) was 72.38% and the “% Desferrioxaine-B salt dissolved” value ([3]; 175 min, listed as octanesulphonate) was 79.13%. For the same compound, the “% Desferrioxaine-B salt dissolved” value ([3]; 200 min, listed as octanesulphonate) was 84.91%, the “% Desferrioxaine-B salt dissolved” value ([3]; 225 min, listed as octanesulphonate) was 89.25% and the “% Desferrioxaine-B salt dissolved” value ([3]; 250 min, listed as octanesulphonate) was 92.50%. For the same compound, the “% Desferrioxaine-B salt dissolved” value ([3]; 275 min, listed as octanesulphonate) was 94.91%, the “% Desferrioxaine-B salt dissolved” value ([3]; 300 min, listed as octanesulphonate) was 96.34% and the “intrinsic rate of release into the aqueous dissolution medium” value ([3]; in words) was “slow”. For the same compound, the “Disintegrations Per Minute ([3H] Thymidine uptake)” value (“Disintegrations Per Minute” below) ([4]; 0.5 μM salt) was 21830 Disintegrations Per Minute, the “Disintegrations Per Minute” value ([4]; 1 μM salt) was 14765 Disintegrations Per Minute and the “Disintegrations Per Minute” value ([4]; 2 μM salt) was 7651 Disintegrations Per Minute. For the same compound, the “Disintegrations Per Minute” value ([4]; 3 μM salt) was 7109 Disintegrations Per Minute, the “Disintegrations Per Minute” value ([4]; 4 μM salt) was 6280 Disintegrations Per Minute and the “Disintegrations Per Minute” value ([4]; 5 μM salt) was 5373 Disintegrations Per Minute. For the same compound, the “Disintegrations Per Minute” value ([4]; 6 μM salt) was 4122 Disintegrations Per Minute, the “Disintegrations Per Minute” value ([4]; 7.5 μM salt) was 3716 Disintegrations Per Minute and the “Disintegrations Per Minute” value ([4]; 10 μM salt) was 2292 Disintegrations Per Minute. The “Disintegrations Per Minute” value ([4]; 15 μM salt) was 1065 Disintegrations Per Minute and the “Disintegrations Per Minute” value ([4]; 20 μM salt) was 482 Disintegrations Per Minute.

For `CC(=O)N(O)CCCCCNC(=O)CCC(=O)N(O)CCCCCNC(=O)CCC(=O)N(O)CCCCCN` [desferrioxamine-B], the “ability to form stable complexes with trivalent metal ions” value [5] is listed as “marked ability to form stable complexes with trivalent metal ions, especially Fe^3+”.
